Measured values taken from article PMC11079024, “Identification of a family of species-selective complex I inhibitors as potential anthelmintics” (Nature Communications, 2024).
Like-named read-outs stand apart in the source and are kept apart here.

Tests used:
[1] = system: ben-1 mutant (ECA882) C. elegans; assay: microbe, parasite or virus in culture; conditions: Caenorhabditis elegans; for viability at 1 µM / viability at 2 µM / viability at 3.9 µM / viability at 15.6 µM / viability at 31.3 µM / viability at 62.5 µM / viability at 125 µM / viability at 250 µM / viability at 500 µM / viability at 1000 µM: read-out: C. elegans ben-1(e1880) development/viability
Procedure, shortened: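 L1 larvae (~2 worms/μL in M9) in liquid NGM with 2-fold concentrated E. coli HB101, compound at 1% DMSO, 6 days at 20 °C shaking 165 rpm. Well images scored as summed worm-associated pixels, normalized to DMSO controls; relative viability averaged over at least three biological replicates.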

[2] = system: L1 wild-type C. elegans; conditions: for KCN survival assay value relative to DMSO control, Mean: mean of replicates
[3] = in vitro; conditions: human; for viability at 2 days, 3.13 µM / viability at 2 days, 6.25 µM / viability at 2 days, 12.5 µM / viability at 2 days, 25 µM / viability at 2 days, 100 µM / viability at 2 days, 50 µM: HEK293 cells (Flp-In-293); for viability at 2 days, 3.13 µM / viability at 2 days, 6.25 µM / viability at 2 days, 12.5 µM / viability at 2 days, 25 µM / viability at 2 days, 100 µM / viability / viability at 2 days, 50 µM: HEK293 viability
[4] = read-out: C. elegans (ben-1) Development & Viability Assay LC50
[5] = read-out: C. elegans ben-1 LC50
[6] = read-out: C. elegans ben-1 log10 LC50 (converted)
[7] = 50 μM, […], hit = relative motility below 0.25 3 hours after removal of KCN
[8] = Dose 0.2 µM, mean of at least three biological replicates
[9] = 50 μM, […], KCN survival assay, hit = relative motility below 0.25
[10] = HEK293 Cell Viability Assay LC50, HEK293 cells, estimated from fitted dose-response curves, mean of at least two biological replicates
[11] = 50 μM compound, […], hit = relative motility below 0.25 3 hours after removal of KCN

| SMILES | LC50 [1, 4] [µM] | viability at 1 µM [1] [%] | viability at 2 µM [1] [%] | viability at 3.9 µM [1] [%] | viability at 15.6 µM [1] [%] | viability at 31.3 µM [1] [%] | viability at 62.5 µM [1] [%] | viability at 125 µM [1] [%] | LC50 [1, 6] [µM] | C. elegans KCN Survival [2, 8] | C. elegans KCN Survival ([2]; Dose 0.39 µM) | C. elegans KCN Survival ([2]; Dose 1.56 µM) | C. elegans KCN Survival ([2]; Dose 3.13 µM) | C. elegans KCN Survival ([2]; Dose 6.25 µM) | C. elegans KCN Survival ([2]; Dose 12.5 µM) | C. elegans KCN Survival ([2]; Dose 25 µM) | C. elegans KCN Survival ([2]; Dose 50 µM) | C. elegans KCN Survival ([2]; Dose 100 µM) | viability at 2 days, 3.13 µM [3] [%] | viability at 2 days, 12.5 µM [3] [%] | further results |
| --- | --- | --- | --- | --- | --- | --- | --- | --- | --- | --- | --- | --- | --- | --- | --- | --- | --- | --- | --- | --- | --- |
| Cc1ccc(OCCn2cnc3ccccc32)c(C)c1 [Compound 7706808] | > 1000 | 100 | 96.2 | 97 | 98.9 | 97.3 | 93.8 | 89.7 | > 500 | 0.957 | 1.031 | 1.000 | 0.998 | 0.894 | 0.483 | 0.132 | 0.135 | 0.199 | 100 | 100 | viability at 250 µM [1]: 94.6%; viability at 500 µM [1]: 76.7%; viability at 1000 µM [1]: 69.9%; LC50 [1, 5]: > 500 µM; Screen "Hit" [2, 7]: Y (hits were identified as compounds that reduced relative motility below 0.25 (75% reduction)); CC50 at 2 days [3]: 89.1 µM; viability at 2 days, 6.25 µM ([3]; Dose 6.25 µM): 100%; viability at 2 days, 25 µM [3]: 100%; viability at 2 days, 100 µM [3]: 36.2%; viability ([3]; Dose 50 µM): 94.6% |
| Clc1ccccc1OCCCCn1cnc2ccccc21 [Compound 7925804] | 49.2 | 91.8 | 87.2 | 83.7 | 79 | 79.6 | 18.3 | 6.8 | 49.2 | 1.043 | 1.064 | 1.052 | 1.018 | 0.644 | 0.155 | 0.142 | 0.136 | 0.181 | 100 | 97.9 | viability at 250 µM [1]: 4.1%; viability at 500 µM [1]: 3.2%; viability at 1000 µM [1]: 3.8%; Screen "Hit" [2, 9]: Y (hits were identified as compounds that reduced relative motility below 0.25 (75% reduction)); CC50 at 2 days [3, 10]: 40.2 µM; viability at 2 days, 6.25 µM ([3]; Dose 6.25 µM): 99.5%; viability at 2 days, 25 µM [3]: 73.8%; viability at 2 days, 50 µM ([3]; Dose 50 µM): 40.2%; viability at 2 days, 100 µM [3]: 8% |
| Nc1nc2ccccc2n1Cc1ccc(Cl)cc1 [Compound 5652765] | 71.7 | 98 | 94.6 | 92.8 | 89.9 | 76.1 | 63.7 | 13.8 | 71.6 | 0.973 | 1.034 | 1.067 | 1.051 | 1.001 | 0.758 | 0.271 | 0.140 | 0.216 | 94.2 | 92.9 | viability at 250 µM [1]: 7.4%; viability at 500 µM [1]: 6.3%; Screen "Hit" [2, 9]: Y (hits were identified as compounds that reduced relative motility below 0.25 (75% reduction)); CC50 at 2 days [3, 10]: 58.9 µM; viability at 2 days, 6.25 µM ([3]; Dose 6.25 µM): 94%; viability at 2 days, 25 µM [3]: 94.5%; viability at 2 days, 50 µM ([3]; Dose 50 µM): 62.3%; viability at 2 days, 100 µM [3]: 10% |
| Cc1ccccc1OCCCn1c(C)nc2ccccc21 [Compound 7916923] | 142 | 95.8 | 94.9 | 93.4 | 96 | 89.5 | 86.2 | 67.3 | 143 | 0.930 | 1.083 | 1.052 | 0.985 | 0.888 | 0.491 | 0.124 | 0.136 | 0.168 | 84.6 | 95.2 | viability at 250 µM [1]: 2.7%; viability at 500 µM [1]: 2.9%; viability at 1000 µM [1]: 2.3%; Screen "Hit" [2, 7]: Y (hits were identified as compounds that reduced relative motility below 0.25 (75% reduction)); CC50 at 2 days [3]: 45.5 µM; viability at 2 days, 25 µM [3]: 73.1%; viability at 2 days, 50 µM ([3]; Dose 50 µM): 41.6%; viability at 2 days, 100 µM [3]: 9.6%; viability ([3]; Dose 6.25 µM): 94.9% |
| c1ccc(CCCCCCCCCCc2nc3ccccc3[nH]2)cc1 [STL442376] | 640 |  |  |  |  |  |  |  | 640 |  |  |  |  |  |  |  |  |  |  |  | Screen "Hit" [2, 11]: Y (hits were identified as compounds that reduced relative motility below 0.25 (75% reduction)); CC50 at 2 days [3, 10]: < 6.25 µM |
| Clc1ccc(OCCn2cnc3ccccc32)c(Cl)c1 [Compound 7221649] | 37.2 | 86.6 | 85.6 | 87.8 | 91.2 | 64.6 | 3.9 | 37.3 | 37.2 | 0.959 | 0.956 | 1.007 | 1.008 | 0.946 | 0.599 | 0.152 | 0.156 | 0.254 | 100 | 100 | Screen "Hit" [2, 7]: Y (hits were identified as compounds that reduced relative motility below 0.25 (75% reduction)); CC50 at 2 days ([3]; HEK293 Cell Viability Assay LC50, HEK293 cells, estimated from fitted dose-response curves): 55.3 µM; viability at 2 days, 6.25 µM ([3]; Dose 6.25 µM): 100%; viability at 2 days, 25 µM [3]: 100%; viability at 2 days, 50 µM ([3]; Dose 50 µM): 61.2%; viability at 2 days, 100 µM [3]: 7.3% |
| Cc1ccc2nc(C(C)c3ccc(CC(C)C)cc3)[nH]c2c1 (centres unmarked) [STL482096] | > 1000 |  |  |  |  |  |  |  | > 500 |  |  |  |  |  |  |  |  |  |  |  | LC50 [1, 5]: > 500 µM; Screen "Hit" [2, 11]: Y (hits were identified as compounds that reduced relative motility below 0.25 (75% reduction)); CC50 at 2 days [3]: < 12.5 µM |
| Cc1nc2ccccc2n1Cc1ccc(Cl)cc1 [STK697993] | 40.1 |  |  |  |  |  |  |  | 40.1 |  |  |  |  |  |  |  |  |  |  |  | Screen "Hit" [2, 11]: Y (hits were identified as compounds that reduced relative motility below 0.25 (75% reduction)); Relative Motility ([2]; 50 μM compound, […], worm motility 3 hours after removal of KCN, relative to DMSO controls, single biological replicate): 0.000; KCN survival assay value relative to DMSO control, Mean ([2]; dose 3.1 µM, […]): 1.037; KCN survival assay value relative to DMSO control, Mean ([2]; dose 6.3 µM, […]): 1.001; KCN survival assay value relative to DMSO control, Mean ([2]; dose 12.5 µM, […]): 0.717; KCN survival assay value relative to DMSO control, Mean ([2]; dose 25 µM, […]): 0.059; KCN survival assay value relative to DMSO control, Mean ([2]; dose 50 µM, […]): 0.046; CC50 at 2 days ([3]; HEK293 Cell Viability Assay LC50): > 100 µM |
